Patent publication US12139458B2, “(2,5-dioxopyrrolidin-1-yl)(phenyl)-acetamide derivatives and their use in the treatment of neurological diseases” (UNIWERSYTET JAGIELLONSKI, priority 2019, dated 2024)

Columns and labels:
[1] = Metabolic stability in human liver microsomes; type: in vitro ADME
Procedure: Metabolic stability. The metabolic stability of compound 6 was evaluated using human liver microsomes (HLMs). Internal clearance values CLint were calculated by monitoring changes in compound concentration in the presence of microsomes per unit of time, according to the procedure proposed by Obach R. S. (Obach, R. S. Drug Metab. Dispos. 1999, 27, 1350-1359).
Metabolic stability tests—methodology. Metabolic stability studies for compound 6 were performed using HLMs (Promega, Madison, WI, USA). For this purpose, 10 μL of compound 6 at a concentration of 1000 μM was diluted with 132 μL with tris-HCl buffer (100 mM, pH 7.4), followed by the addition of 8 μL of appropriate microsomes. The reaction mixture was preincubated at 37° C. for 5 minutes, followed by the addition of 50 μL of NADPH Regeneration System, supplied by Promega (Madison, WI, USA). After mixing, the whole mixture was incubated at 37° C. for 120 minutes. To complete the reaction, 200 μL of cold methanol was added to the tubes and centrifuged. The supernatant was subjected to UPLC/MS analysis, including fragmentation analysis. Four mixtures of 6 with HLMs were prepared to determine the internal clearance CLint. Each of these reactions was completed at a different time point, after 5, 15, 30 and 45 min, by the addition of cold methanol containing 50 μM internal standard. Then, according to literature guidelines (Obach, R. S. Drug Metab. Dispos. 1999, 27, 1350-1359), based on the plot of the relationship between the height of the peak from 6 and the height of the internal standard, the regression equation was determined and the reaction rate constant k was calculated. Then the constant k was substituted to equation (1).
The calculated t1/2 value was then substituted into equation (2): […]

[2] = system: male white Swiss mice (CD-1); experiment: Oxaliplatin-induced neuropathic pain, von Frey test; type: in vivo; conditions: for pain threshold, von Frey test: 7 days after OXPT, after OXPT 1.89±0.04 g; for pain threshold as % of the initial value, von Frey test: initial value 3.36±0.10 g
Procedure: The tests were carried out using male white Swiss mice (CD-1) weighing 18-25 g. All procedures were carried out in accordance with Polish and international guidelines on ethics of animal testing, after obtaining appropriate institutional approval. The study group consisted of 8-10 animals. The tested and reference substances were administered intraperitoneally 30 minutes before given test as suspension in 1% aqueous solution of Tween. All tests/models were carried out based on the procedures described in the specialist literature: the formalin test (Beirith, A.; Santos, A. R.; Calixto, J. B.; Rodrigues, A. L.; Creczynski-Pasa, T. B. Eur. J. Pharmacol. 1998, 345, 233-245), the model of capsaicin-induced pain (Mogilski, S.; Kubacka, M.; Redzicka, A.; Kazek, G.; Dudek, M.; Malinka, W.; Filipek, B. Pharmacol. Biochem. Behav. 2015, 133, 99-110), the model of oxaliplatin-induced neuropathic pain—von Frey test (Sałat, K.; Cios, A.; Wyska, E.; Satat, R.; Mogilski, S.; Filipek, B.; Wigȩkowski, K.; Malawska, B. Pharmacol. Biochem. Behav. 2014, 122, 173-181).
Oxaliplatin (OXPT) was dissolved in a 5% glucose solution, followed by intraperitoneal administration to mice. A single dose of 10 mg/kg was used. Tactile and thermal (sensation of low temperature) allodynia associated with oxaliplatin-induced neuropathy are characterized by two phases. The early phase is acute and develops soon after administration of the OXPT, while the symptoms of the later (chronic) phase (associated with neurons damage), develops after a few days. Behavioral tests in mice with OXPT-induced neuropathy were carried out 7 days after its administration, i.e. in the late phase of neuropathy.
The influence of compounds tested on tactile allodynia was determined in the von Frey test. The animals were placed individually in cages with a reticulated bottom, 60 minutes before the beginning of the experiment, in order to adapt to the new environment. An electronic Von Frey apparatus (Electronic Von Frey, Bioseb, France) was used to assess the pain threshold for mechanical stimuli. The von Frey's fiber was applied to the underside of the right mouse paw with increasing pressure. […] The measurement was performed 3 times for each mouse, with at least 30 seconds between the measurements, then the results obtained were averaged. The entire study was performed 3 times: before OXPT administration to determine the baseline pain threshold; 7 days after administration of OXPT, and before administration of test compounds, to assess developing neuropathy by setting a new pain threshold; 30 minutes after administration of the compounds to determine their influence developed neuropathy.
Compound 6 was administered at doses of 10, 20 and 30 mg/kg.

Potassium channel (hERG) = Potassium channel (hERG) (Homo sapiens, UniProt Q12809); experiment: Potassium channel (hERG) affinity study; type: binding; conditions: 100 μM, human recombinant cells (HEK-293)
Potassium channel (hERG), sequence (Q12809 whole entry): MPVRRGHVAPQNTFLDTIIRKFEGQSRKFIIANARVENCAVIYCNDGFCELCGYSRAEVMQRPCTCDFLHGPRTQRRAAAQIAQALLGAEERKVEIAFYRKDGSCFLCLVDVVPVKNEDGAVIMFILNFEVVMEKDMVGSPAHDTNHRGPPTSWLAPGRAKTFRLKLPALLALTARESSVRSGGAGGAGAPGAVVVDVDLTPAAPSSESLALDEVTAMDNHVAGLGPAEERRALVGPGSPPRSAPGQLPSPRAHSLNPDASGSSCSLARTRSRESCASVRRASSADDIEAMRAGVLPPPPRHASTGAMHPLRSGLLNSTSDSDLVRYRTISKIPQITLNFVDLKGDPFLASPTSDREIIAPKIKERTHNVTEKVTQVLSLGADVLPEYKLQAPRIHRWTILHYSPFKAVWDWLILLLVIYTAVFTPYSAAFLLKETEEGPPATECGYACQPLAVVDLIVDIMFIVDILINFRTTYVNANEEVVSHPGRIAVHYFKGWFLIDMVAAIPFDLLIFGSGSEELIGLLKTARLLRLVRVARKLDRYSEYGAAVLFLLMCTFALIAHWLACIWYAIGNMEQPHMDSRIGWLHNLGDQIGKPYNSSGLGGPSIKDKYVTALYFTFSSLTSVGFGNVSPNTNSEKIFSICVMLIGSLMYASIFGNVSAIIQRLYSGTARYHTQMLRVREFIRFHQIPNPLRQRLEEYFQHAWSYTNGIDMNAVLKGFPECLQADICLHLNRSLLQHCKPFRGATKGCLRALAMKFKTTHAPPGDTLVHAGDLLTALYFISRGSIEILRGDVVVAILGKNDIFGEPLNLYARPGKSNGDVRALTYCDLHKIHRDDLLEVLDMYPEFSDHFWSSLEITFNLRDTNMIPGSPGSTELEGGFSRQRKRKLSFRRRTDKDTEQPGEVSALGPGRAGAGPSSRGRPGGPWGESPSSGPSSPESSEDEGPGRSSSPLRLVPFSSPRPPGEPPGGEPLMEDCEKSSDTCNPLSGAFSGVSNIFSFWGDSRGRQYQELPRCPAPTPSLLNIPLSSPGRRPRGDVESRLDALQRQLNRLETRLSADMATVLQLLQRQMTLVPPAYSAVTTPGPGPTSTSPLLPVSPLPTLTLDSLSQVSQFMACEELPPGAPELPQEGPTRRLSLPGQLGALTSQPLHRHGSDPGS

Q: What does the source list for `O=C(C(c1ccccc1)N1C(=O)CCC1=O)N1CCN(c2cccc(C(F)(F)F)c2)CC1` (racemic) [Compound 6, 1-(2-Oxo-1-phenyl-2-(4-(3-(trifluoromethyl)phenyl)piperazin-1-yl)ethyl)pyrrolidine-2,5-dione]?
A: metabolites found by UPLC after incubation with HLMs ([1]; 120 min incubation, UPLC/MS): three metabolites M1-M3; CLint scaled at 50 µM ([1]; human, human liver microsomes, pH 7.4, incubation with HLMs, read-out: internal clearance CLint): 5.8 mL/min/kg; internal clearance CLint ([1]; incubation with HLMs): 5.6 mL/min/kg; pain threshold, von Frey test ([2]; 10 mg/kg i.p.): 2.87 ± 0.12 g; pain threshold as % of the initial value, von Frey test ([2]; 10 mg/kg i.p.): 85.41%; pain threshold, von Frey test ([2]; 20 mg/kg i.p.): 3.83 ± 0.13 g; pain threshold as % of the initial value, von Frey test ([2]; 20 mg/kg i.p.): 113.98%; pain threshold, von Frey test ([2]; 30 mg/kg i.p.): 4.17 ± 0.17 g; pain threshold as % of the initial value, von Frey test ([2]; 30 mg/kg i.p.): 124.10%; Inhibition of specific control binding, Potassium channel (hERG) (Potassium channel (hERG)): 25.8 (100) %
